Assays:
[1] = tested on: STAM™ mouse model of Non-alcoholic Steatohepatitis; assay: STAM mouse model of NASH, Part 1: anti-NASH/fibrosis effects at week 9; type: in vivo, mice; details: for Body weight / Liver-to-body weight ratio / Collagen Type 1 mRNA expression level (liver, quantitative RT-PCR) / MCP-1 mRNA expression level (liver, quantitative RT-PCR) / TIMP-1 mRNA expression level (liver, quantitative RT-PCR): mean ± SD; for Collagen Type 1 mRNA expression level (liver, quantitative RT-PCR) / MCP-1 mRNA expression level (liver, quantitative RT-PCR) / TIMP-1 mRNA expression level (liver, quantitative RT-PCR): Vehicle 1.00
Protocol: NASH was induced in male mice by a single injection of 200 μg streptozotocin 2 days after birth (causing impaired glucose control), followed by a high fat diet from 4 weeks of age. […] Animals were sacrificed at 9 weeks of age, and biochemical, gene expression, and histologic evaluations of the liver were conducted. […] Group 2-Cenicriviroc 20 mg/kg (CVC-low): […] [table]

[2] = tested on: STAM™ mouse model of Non-alcoholic Steatohepatitis; assay: STAM mouse model of NASH, Part 2: anti-HCC effects at week 18; details: for Body weight / Liver-to-body weight ratio: mean ± SD; for mice that died (survival analysis): 6 to 18 weeks
Protocol: Group 1-Vehicle: Eighteen NASH mice were orally administered vehicle at a volume of 10 mL/kg twice daily (9:00 and 19:00) from 6 weeks of age.

[3] = tested on: HIV-1 infected adult subjects; assay: Study 202 biomarkers of inflammation; type: in vivo, human
Protocol: As an exploratory analysis, levels of inflammation biomarkers MCP-1, sCD14, high sensitivity C-reactive protein [hs-CRP], interleukin-6 [IL-6], D-dimer, and fibrinogen) were measured. Baseline values and changes from baseline at Week 24 and Week 48 of MCP-1, sCD14, hs-CRP, IL-6, D-dimer, and fibrinogen are summarized in Table 22.
The sCD14 samples were originally analyzed in 2 separate batches: Batch 1 included samples leading up to the Week 24 primary analysis and Batch 2 included Week 32 and Week 48 (end of study) samples. A repeat analysis of archived samples all analyzed in one batch was conducted for consistency in analysis across time points. To control for the effects of covariates, a linear mixed-model repeated-measures analysis was conducted on the changes from baseline in sCD14 (analysis dated September 2013).

[4] = CVC plasma exposures, healthy volunteers vs HIV-infected subjects; type: in vivo, human; details: same dosing conditions; Studies 652-1-111, 652-1-110, 652-2-202
[5] = CVC-high 100 mg/kg/day, week 9, listed as Cenicriviroc
[6] = CVC-high 100 mg/kg/day, week 9, n = 6
[7] = CVC-low 20 mg/kg/day, week 9, listed as Cenicriviroc
[8] = CVC-low 20 mg/kg/day, week 9, n = 6
[9] = CVC-high 100 mg/kg/day, week 18
[10] = CVC-high 100 mg/kg/day, week 18, listed as Cenicriviroc
[11] = CVC-low 20 mg/kg/day, week 18, listed as Cenicriviroc

SMILES: CCCCOCCOc1ccc(-c2ccc3c(c2)/C=C(/C(=O)Nc2ccc([S@@+]([O-])Cc4cncn4CCC)cc2)CCCN3CC(C)C)cc1 [CVC, (S)-8-[4-(2-Butoxyethoxy)phenyl]-1-isobutyl-N-(4-{[(1-propyl-1H-imidazol-5-yl)methyl]sulfinyl}phenyl)-1,2,3,4-tetrahydro-1-benzazocine-5-carboxamide]
- collagen type 1 mRNA in whole liver lysates, decrease (real-time RT-PCR) ([1]; CVC treatment 20 and 100 mg/kg/day, 9 weeks of age): 27-37%
- Body weight ([1]; CVC-high 100 mg/kg/day, week 9): 18.7 ± 0.9 g
- Liver-to-body weight ratio ([1]; CVC-high 100 mg/kg/day, week 9): 7.0±0.8%
- Collagen Type 1 mRNA expression level (liver, quantitative RT-PCR) ([1]; CVC-high 100 mg/kg/day, week 9): 0.73±0.04
- MCP-1 mRNA expression level (liver, quantitative RT-PCR) ([1]; CVC-high 100 mg/kg/day, week 9): 1.00±0.53
- TIMP-1 mRNA expression level (liver, quantitative RT-PCR) ([1]; CVC-high 100 mg/kg/day, week 9): 0.80±0.20
- Collagen Type 1 mRNA expression level (liver, quantitative RT-PCR) [1, 5]: 0.73 ± 0.04
- MCP-1 mRNA expression level (liver, quantitative RT-PCR) [1, 5]: 1.00 ± 0.53
- TIMP-1 mRNA expression level (liver, quantitative RT-PCR) [1, 5]: 0.80 ± 0.20
- Body weight [1, 5]: 18.7 ± 0.9 g
- Liver-to-body weight ratio [1, 5]: 7.0 ± 0.8%
- Hepatocyte ballooning score 0 (None), number of mice [1, 6]: 1
- Hepatocyte ballooning score 1 (Few balloon cells), number of mice [1, 6]: 2
- Hepatocyte ballooning score 2 (Many cells/prominent ballooning), number of mice [1, 6]: 3
- Lobular inflammation score 1 (<2 foci/200x), number of mice [1, 6]: 3
- Lobular inflammation score 2 (2-4 foci/200x), number of mice [1, 6]: 3
- Steatosis score 0 (<5%), number of mice [1, 6]: 1
- Steatosis score 1 (5-33%), number of mice [1, 6]: 5
- Body weight ([1]; CVC-low 20 mg/kg/day, week 9): 19.5 ± 2.0 g
- Liver-to-body weight ratio ([1]; CVC-low 20 mg/kg/day, week 9): 6.9±1.0%
- Collagen Type 1 mRNA expression level (liver, quantitative RT-PCR) ([1]; CVC-low 20 mg/kg/day, week 9): 0.63±0.10
- TIMP-1 mRNA expression level (liver, quantitative RT-PCR) ([1]; CVC-low 20 mg/kg/day, week 9): 0.75±0.32
- Collagen Type 1 mRNA expression level (liver, quantitative RT-PCR) [1, 7]: 0.63 ± 0.10
- TIMP-1 mRNA expression level (liver, quantitative RT-PCR) [1, 7]: 0.75 ± 0.32
- Body weight [1, 7]: 19.5 ± 2.0 g
- Liver-to-body weight ratio [1, 7]: 6.9 ± 1.0%
- Hepatocyte ballooning score 1 (Few balloon cells), number of mice [1, 8]: 3
- Hepatocyte ballooning score 2 (Many cells/prominent ballooning), number of mice [1, 8]: 3
- Lobular inflammation score 1 (<2 foci/200x), number of mice [1, 8]: 3
- Lobular inflammation score 2 (2-4 foci/200x), number of mice [1, 8]: 3
- Steatosis score 1 (5-33%), number of mice [1, 8]: 6
- general condition throughout the treatment period ([1]; CVC-low and CVC-high, until week 9): None of the animals in the present study showed deterioration in general condition
- effect on NASH-derived HCC ([2]; CVC treatment groups, week 18): not observed
- Body weight [2, 9]: 20.8 ± 2.7 g
- Liver-to-body weight ratio [2, 9]: 8.8±2.3%
- Body weight [2, 10]: 20.8 ± 2.7 g
- Liver-to-body weight ratio [2, 10]: 8.8 ± 2.3%
- mice that died (survival analysis) ([2]; CVC-high group): Five out of twelve mice died
- mice with GS-positive nodules ([2]; CVC-high group, week 18): seven out of seven mice
- mice with HCC lesions (HE staining) ([2]; CVC-high group, week 18): six out of seven mice
- Body weight ([2]; CVC-low 20 mg/kg/day, week 18): 22.9 ± 3.5 g
- Liver-to-body weight ratio ([2]; CVC-low 20 mg/kg/day, week 18): 8.3±2.8%
- Body weight [2, 11]: 22.9 ± 3.5 g
- Liver-to-body weight ratio [2, 11]: 8.3 ± 2.8%
- mice that died (survival analysis) ([2]; CVC-low group): Six out of twelve mice died
- mice with GS-positive nodules ([2]; CVC-low group, week 18): five out of six mice
- mice with HCC lesions (HE staining) ([2]; CVC-low group, week 18): five out of six mice
- D-dimer Changes from baseline at Week 24, Mean ([3]; CVC 100 mg): -32 ng/mL
- D-dimer Changes from baseline at Week 24, Median ([3]; CVC 100 mg): -1.0 ng/mL
- D-dimer Changes from baseline at Week 48, Mean ([3]; CVC 100 mg): -41 ng/mL
- D-dimer Changes from baseline at Week 48, Median ([3]; CVC 100 mg): -1.0 ng/mL
- Fibrinogen Changes from baseline at Week 24, Mean ([3]; CVC 100 mg): -3 mg/dL
- Fibrinogen Changes from baseline at Week 24, Median ([3]; CVC 100 mg): -14 mg/dL
- Fibrinogen Changes from baseline at Week 48, Mean ([3]; CVC 100 mg): 11 mg/dL
- Fibrinogen Changes from baseline at Week 48, Median ([3]; CVC 100 mg): 15 mg/dL
- IL-6 Changes from baseline at Week 24, Mean ([3]; CVC 100 mg): 0.42 pg/mL
- IL-6 Changes from baseline at Week 24, Median ([3]; CVC 100 mg): 0.00 pg/mL
- IL-6 Changes from baseline at Week 48, Mean ([3]; CVC 100 mg): 0.29 pg/mL
- IL-6 Changes from baseline at Week 48, Median ([3]; CVC 100 mg): 0.00 pg/mL
- MCP-1 Changes from baseline at Week 24, Mean ([3]; CVC 100 mg): 493 pg/mL
- MCP-1 Changes from baseline at Week 24, Median ([3]; CVC 100 mg): 429 pg/mL
- MCP-1 Changes from baseline at Week 48, Mean ([3]; CVC 100 mg): 636 pg/mL
- MCP-1 Changes from baseline at Week 48, Median ([3]; CVC 100 mg): 523 pg/mL
- hs-CRP Changes from baseline at Week 24, Mean ([3]; CVC 100 mg): -0.16 mg/dL
- hs-CRP Changes from baseline at Week 24, Median ([3]; CVC 100 mg): -0.03 mg/dL
- hs-CRP Changes from baseline at Week 48, Mean ([3]; CVC 100 mg): -0.08 mg/dL
- hs-CRP Changes from baseline at Week 48, Median ([3]; CVC 100 mg): -0.01 mg/dL
- plasma MCP-1 over time ([3]; CVC 100 mg and 200 mg, EFV, up to Week 48): dose-response was observed with CVC in increases over time
- sCD14 Changes from baseline Week 32, Mean ([3]; CVC 100 mg, original values): 110000 pg/mL
- sCD14 Changes from baseline Week 32, Median ([3]; CVC 100 mg, original values): 120000 pg/mL
- sCD14 Changes from baseline at Week 12, Mean ([3]; CVC 100 mg, original values): -140000 pg/mL
- sCD14 Changes from baseline at Week 12, Median ([3]; CVC 100 mg, original values): -160000 pg/mL
- sCD14 Changes from baseline at Week 24, Mean ([3]; CVC 100 mg, original values): -190000 pg/mL
- sCD14 Changes from baseline at Week 24, Median ([3]; CVC 100 mg, original values): -180000 pg/mL
- sCD14 Changes from baseline at Week 48, Mean ([3]; CVC 100 mg, original values): 100000 pg/mL
- sCD14 Changes from baseline at Week 48, Median ([3]; CVC 100 mg, original values): 100000 pg/mL
- D-dimer Changes from baseline at Week 24, Mean ([3]; CVC 200 mg): -64 ng/mL
- D-dimer Changes from baseline at Week 24, Median ([3]; CVC 200 mg): -50 ng/mL
- D-dimer Changes from baseline at Week 48, Mean ([3]; CVC 200 mg): -70 ng/mL
- D-dimer Changes from baseline at Week 48, Median ([3]; CVC 200 mg): -50 ng/mL
- Fibrinogen Changes from baseline at Week 24, Mean ([3]; CVC 200 mg): -7 mg/dL
- Fibrinogen Changes from baseline at Week 24, Median ([3]; CVC 200 mg): -8 mg/dL
- Fibrinogen Changes from baseline at Week 48, Mean ([3]; CVC 200 mg): -10 mg/dL
- Fibrinogen Changes from baseline at Week 48, Median ([3]; CVC 200 mg): -13 mg/dL
- IL-6 Changes from baseline at Week 24, Mean ([3]; CVC 200 mg): 0.81 pg/mL
- IL-6 Changes from baseline at Week 24, Median ([3]; CVC 200 mg): 0.00 pg/mL
- IL-6 Changes from baseline at Week 48, Mean ([3]; CVC 200 mg): -0.04 pg/mL
- IL-6 Changes from baseline at Week 48, Median ([3]; CVC 200 mg): 0.00 pg/mL
- MCP-1 Changes from baseline at Week 24, Mean ([3]; CVC 200 mg): 753 pg/mL
- MCP-1 Changes from baseline at Week 24, Median ([3]; CVC 200 mg): 695 pg/mL
- MCP-1 Changes from baseline at Week 48, Mean ([3]; CVC 200 mg): 900 pg/mL
- MCP-1 Changes from baseline at Week 48, Median ([3]; CVC 200 mg): 756 pg/mL
- hs-CRP Changes from baseline at Week 24, Mean ([3]; CVC 200 mg): -0.07 mg/dL
- hs-CRP Changes from baseline at Week 24, Median ([3]; CVC 200 mg): -0.04 mg/dL
- hs-CRP Changes from baseline at Week 48, Mean ([3]; CVC 200 mg): -0.18 mg/dL
- hs-CRP Changes from baseline at Week 48, Median ([3]; CVC 200 mg): -0.04 mg/dL
- sCD14 Changes from baseline Week 32, Mean ([3]; CVC 200 mg, original values): 20000 pg/mL
- sCD14 Changes from baseline Week 32, Median ([3]; CVC 200 mg, original values): -20000 pg/mL
- sCD14 Changes from baseline at Week 12, Median ([3]; CVC 200 mg, original values): -210000 pg/mL
- sCD14 Changes from baseline at Week 24, Mean ([3]; CVC 200 mg, original values): -230000 pg/mL
- sCD14 Changes from baseline at Week 24, Median ([3]; CVC 200 mg, original values): -190000 pg/mL
- sCD14 Changes from baseline at Week 48, Mean ([3]; CVC 200 mg, original values): -40000 pg/mL
- sCD14 Changes from baseline at Week 48, Median ([3]; CVC 200 mg, original values): -40000 pg/mL
- sCD14 over 48 weeks of treatment (linear mixed-model analysis of repeat sCD14 analysis) ([3]; both CVC treatment arms, EFV arm): decrease
- CVC plasma exposures in non-HIV infected healthy volunteers compared to HIV-infected subjects [4]: higher

From US20200000772A1, “CENICRIVIROC COMBINATION THERAPY FOR THE TREATMENT OF FIBROSIS” (Tobira Therapeutics, Inc., priority 2014, published 2020)
